Test [1] deals with T1, Neuronal acetylcholine receptor subunit alpha-7 (Rattus norvegicus, UniProt Q05941). Description: Inhibition of [3H]-MLA binding to Nicotinic acetylcholine receptor alpha-7 in rat brain. It counts as tissue-based.
Test [2] has as its target T2, Neuronal acetylcholine receptor; alpha4/beta2 (Rattus norvegicus, UniProt P09483+P12390). Description: Inhibition of [3H]nicotine binding to Nicotinic acetylcholine receptor alpha4-beta2 in rat brain. It counts as tissue-based.
Test [3] has as its target T2, Neuronal acetylcholine receptor; alpha4/beta2. Description: Inhibitory activity against nAChR mediated nicotine-evoked [3H]DA overflow using rat striatal slices. It counts as functional.
The target of test [4] is T1, Neuronal acetylcholine receptor subunit alpha-7. Briefly: Inhibition of [3H]-MLA binding to Nicotinic acetylcholine receptor alpha7 in rat brain. It is filed as tissue-based.
Test [5] concerns the target T2, Neuronal acetylcholine receptor; alpha4/beta2. Briefly: Inhibition of [3H]nicotine binding to Nicotinic acetylcholine receptor alpha4-beta2 in rat brain. It counts as tissue-based.
The species named for the next test is Rattus norvegicus. Description: Inhibitory activity against nAChR mediated nicotine-evoked [3H]DA overflow using rat striatal slices; Not active. It is filed as functional, organism-based.

T1 sequence (Q05941 whole entry): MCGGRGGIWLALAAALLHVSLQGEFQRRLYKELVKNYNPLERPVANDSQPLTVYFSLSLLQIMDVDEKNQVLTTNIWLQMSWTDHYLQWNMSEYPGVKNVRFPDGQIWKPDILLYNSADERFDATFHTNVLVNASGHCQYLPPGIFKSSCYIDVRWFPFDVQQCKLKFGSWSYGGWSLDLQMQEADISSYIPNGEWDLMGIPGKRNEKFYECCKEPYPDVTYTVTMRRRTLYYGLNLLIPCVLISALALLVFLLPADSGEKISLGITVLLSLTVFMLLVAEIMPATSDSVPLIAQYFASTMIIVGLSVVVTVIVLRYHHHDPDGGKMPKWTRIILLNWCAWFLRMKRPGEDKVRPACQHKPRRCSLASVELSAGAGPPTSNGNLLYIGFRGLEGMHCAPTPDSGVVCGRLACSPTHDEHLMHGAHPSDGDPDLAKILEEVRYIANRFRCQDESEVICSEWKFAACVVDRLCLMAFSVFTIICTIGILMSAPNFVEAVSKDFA
T2 sequence (P09483 whole entry): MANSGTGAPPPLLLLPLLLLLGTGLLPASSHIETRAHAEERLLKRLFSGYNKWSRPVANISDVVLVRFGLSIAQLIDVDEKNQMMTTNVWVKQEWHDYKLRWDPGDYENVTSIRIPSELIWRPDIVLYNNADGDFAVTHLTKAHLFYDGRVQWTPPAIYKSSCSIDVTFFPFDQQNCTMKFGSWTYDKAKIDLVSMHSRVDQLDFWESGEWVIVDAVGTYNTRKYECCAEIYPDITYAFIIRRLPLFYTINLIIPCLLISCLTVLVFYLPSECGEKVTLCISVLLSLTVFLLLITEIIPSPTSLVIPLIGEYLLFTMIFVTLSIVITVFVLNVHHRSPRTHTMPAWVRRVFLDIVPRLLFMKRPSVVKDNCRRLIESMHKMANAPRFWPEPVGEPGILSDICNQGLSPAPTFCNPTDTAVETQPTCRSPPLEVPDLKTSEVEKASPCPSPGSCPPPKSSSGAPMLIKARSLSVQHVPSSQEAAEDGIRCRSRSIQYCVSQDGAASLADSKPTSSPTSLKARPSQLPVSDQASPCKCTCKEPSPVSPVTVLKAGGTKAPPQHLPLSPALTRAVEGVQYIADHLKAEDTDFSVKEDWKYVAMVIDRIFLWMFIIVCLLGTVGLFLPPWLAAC
T2 sequence (P12390 whole entry): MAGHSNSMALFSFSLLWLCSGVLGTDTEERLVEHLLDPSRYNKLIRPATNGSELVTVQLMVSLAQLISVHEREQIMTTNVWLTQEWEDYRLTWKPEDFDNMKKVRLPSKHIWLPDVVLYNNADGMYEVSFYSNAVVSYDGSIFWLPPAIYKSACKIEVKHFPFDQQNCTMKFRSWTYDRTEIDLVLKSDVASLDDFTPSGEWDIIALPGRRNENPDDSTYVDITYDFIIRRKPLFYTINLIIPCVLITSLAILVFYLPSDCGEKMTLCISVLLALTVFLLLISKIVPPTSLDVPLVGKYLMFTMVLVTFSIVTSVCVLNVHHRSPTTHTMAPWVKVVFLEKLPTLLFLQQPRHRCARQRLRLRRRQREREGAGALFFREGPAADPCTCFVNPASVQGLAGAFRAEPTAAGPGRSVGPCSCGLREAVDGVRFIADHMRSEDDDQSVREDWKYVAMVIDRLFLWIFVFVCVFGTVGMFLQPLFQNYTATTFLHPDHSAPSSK

As a reminder, the Ki is a measure of affinity in units of concentration, obtained from inhibition or displacement. Low values mean tighter binding, high ones weaker binding. A word on the IC50: it is the concentration that inhibits the measured activity by half. Read a low IC50 as greater potency. `CCCCCCCCCCCCCCCCCCCC[n+]1ccccc1.[Br-]`: the inhibition constant (Ki) entry in test [1] and in test [2] was “Not Active” throughout. In addition, the IC50 in test [3] was 120 nM.
`CCCCCCCCC[n+]1cccc2c1CC[C@@H]1CCN(C)[C@H]21.[I-]`: the Ki result in test [1] and in test [2] was “Not Active” each time. The concentration for half-maximal inhibition (IC50) in test [3] amounted to 310 nM.
Regarding `CCCCCCCC[n+]1cccc2c1CC[C@@H]1CCN(C)[C@H]21.[I-]`, the Ki result in test [1] and in test [2] was “Not Active” each time. The IC50 in test [3] was found to be 40 nM.
On to `CCCCCCCC[n+]1cccc([C@@H]2CCCN2C)c1`, for which the inhibition constant (Ki) in test [4] amounted to 12000 nM.
For the compound `CCCCCCCCCCCC[n+]1cccc([C@@H]2CCCN2C)c1.[I-]`, the inhibition constant (Ki) in test [5] is 140 nM; in test [1], “Not Active”. Also, the IC50 in test [3] was found to be 9 nM.
Take `CCCCCCCCCCCC[n+]1ccccc1.[I-]`: the Ki entry in test [1] and in test [2] was “Not Active” each time. In test [3], the IC50 was found to be 260 nM.
With `CCCCCCCCC[n+]1ccc2c(c1)[C@H]1[C@@H](CC2)CCN1C.[I-]`, the Ki entry in test [1] and in test [2] was “Not Active” each time. For the same compound, in test [3], the half-inhibitory concentration (IC50) was determined as 660 nM.
In the case of `c1cc[n+](CCCCCCCCCCCCCC[n+]2ccccc2)cc1`, the Ki is 9150 nM in test [5] and 33000 nM in test [4]. In test [3], this compound showed a half-inhibitory concentration (IC50) of 1000 nM.
For the compound `CCCCCCCCCCCC[n+]1cccc2c1CC[C@@H]1CCN(C)[C@H]21.[I-]`, the inhibition constant Ki result in test [1] and in test [2] was “Not Active” each time. Also, the IC50 result in the test listed under Rattus norvegicus is given as “Not Active”.
Regarding `CCCCCCCCCCC[n+]1cccc2c1CC[C@@H]1CCN(C)[C@H]21.[I-]`, the Ki entry in test [1] and in test [2] was “Not Active” each time. For the same compound, the half-inhibitory concentration (IC50) in test [3] is 40 nM.
For `CCCCCCCCCCC[n+]1ccc2c(c1)[C@H]1[C@@H](CC2)CCN1C.[I-]`, the Ki entry in test [1] and in test [2] was “Not Active” each time. This compound came in with an IC50 in test [3] of 40 nM.
Consider `CN1CCC[C@H]1c1ccc[n+](CCCCCCCCCCCCCC[n+]2cccc([C@@H]3CCCN3C)c2)c1.[Br-].[Br-]`, for which the inhibition constant Ki was 1950 nM in test [5] and “Not Active” in test [1]. Moreover, the half-inhibitory concentration (IC50) in test [3] came out at 170 nM.
On to `CCCCCCCCCC[n+]1ccc2c(c1)[C@H]1[C@@H](CC2)CCN1C.[I-]`, for which the inhibitory constant (Ki) result in test [1] and in test [2] was “Not Active” throughout. This compound also displayed a concentration for half-maximal inhibition (IC50) in test [3] of 580 nM.
For the compound `CCCCCCCCCCCCCCC[n+]1ccccc1.[Br-]`, the figures for the Ki in test [5] and in test [1] were 38000 nM and “Not Active”, respectively. Besides, in test [3], the 50% inhibitory concentration (IC50) stood at 320 nM.
For `CCCCCCCCCC[n+]1cccc([C@@H]2CCCN2C)c1.[I-]`, the results for the Ki in test [5] and in test [1] were 90 nM and “Not Active”, respectively. Also, in the test filed under Rattus norvegicus, the IC50 result is “Not Active”.
Consider `CCCCCCCCCC[n+]1cccc2c1CC[C@@H]1CCN(C)[C@H]21.[I-]`, for which the Ki result in test [1] and in test [2] was “Not Active” throughout. The compound further had a half-inhibitory concentration (IC50) in test [3] of 30 nM.
On to `CCCCCCCCCC[n+]1ccccc1.[I-]`, for which the inhibition constant Ki in test [5] was 17000 nM; in test [1], “Not Active”. This compound registered an IC50 in test [3] of 130 nM.
As for `CCCCCCCC[n+]1ccc2c(c1)[C@H]1[C@@H](CC2)CCN1C.[I-]`, the inhibition constant Ki entry in test [1] and in test [2] was “Not Active” in each case. Moreover, in test [3], the IC50 was 80 nM.
In the case of `CCCCCCCCCCCC[n+]1ccc2c(c1)[C@H]1[C@@H](CC2)CCN1C.[I-]`, the Ki entry in test [1] and in test [2] was “Not Active” each time. The compound also yielded an IC50 in test [3] of 220 nM.

The record behind these values is ChEMBL document CHEMBL1147512, “Development of subtype-selective ligands as antagonists at nicotinic receptors mediating nicotine-evoked dopamine release” (Bioorg Med Chem Lett, 2004).
